Experimental data: publication PMC8305912, “The HDAC/HSP90 Inhibitor G570 Attenuated Blue Light-Induced Cell Migration in RPE Cells and Neovascularization in Mice through Decreased VEGF Production” (Molecules, 2021)

How the values were obtained:
[1] = tested on: HeLa nuclear extract HDAC; experiment: HeLa nuclear extract HDAC activity assay; type: biochemical; conditions: HeLa nuclear extract as HDAC source
Hsp90α = molecular target: T1, Hsp90α (Homo sapiens, UniProt P07900); experiment: Heat shock protein (Hsp) 90α activity assay (fluorescence polarization, FITC-labeled geldanamycin); type: binding; conditions: read-out: HSP90 IC50
T1 construct: purchased BPS Bioscience

[2] = tested on: laser-induced choroidal neovascularization (CNV); experiment: Laser-induced choroidal neovascularization (CNV) model, fundus fluorescein angiography; type: in vivo, C57BL/6 mice; conditions: day 7, vs vehicle; G570 20 mg/kg/day i.p. days 0, 1, 3, 5; Eylea 40 μg/1 μL per eye i.v.t. day 0

Molecule | IC50 (Hsp90α) | other results
COc1c(C)cnc(Cn2cnc3c(Cl)nc(N)nc32)c1C [BIIB021] |  | IC50 [1]: > 1000 nM
CC(C)c1cc(C(=O)N2CCc3cc(NC(=O)CCC(=O)NO)ccc32)c(O)cc1O [Compound 1, N1-(1-(2,4-dihydroxy-5-isopropylbenzoyl)indolin-5-yl)-N4-hydroxysuccinamide] | 49.3 ± 1.6 nM | 
CC(C)c1cc(C(=O)N2CCc3cc(NC(=O)CCCC(=O)NO)ccc32)c(O)cc1O [Compound 2, N1-(1-(2,4-dihydroxy-5-isopropylbenzoyl)indolin-5-yl)-N5-hydroxyglutaramide] | 55.9 ± 3.2 nM | 
CC(C)c1cc(C(=O)N2CCc3cc(NC(=O)CCCCCC(=O)NO)ccc32)c(O)cc1O [Compound 4, N1-(1-(2,4-dihydroxy-5-isopropylbenzoyl)indolin-5-yl)-N7-hydroxyheptanediamide] | 40.2 ± 5.2 nM | 
CC(C)c1cc(C(=O)N2CCc3cc(NC(=O)CCCCCCCC(=O)NO)ccc32)c(O)cc1O [Compound 6, N1-(1-(2,4-dihydroxy-5-isopropylbenzoyl)indolin-5-yl)-N9-hydroxynonanediamide] | 52.1 ± 2.9 nM | 
CC(C)c1cc(C(=O)N2CCc3cc(NC(=O)CCCCCCCCC(=O)NO)ccc32)c(O)cc1O [Compound 7, N1-(1-(2,4-dihydroxy-5-isopropylbenzoyl)indolin-5-yl)-N10-hydroxydecanediamide] | 58.6 ± 2.2 nM | 
O=C(CCCCCCC(=O)Nc1ccccc1)NO [SAHA, reference compound] | > 1000 nM | 
aflibercept [Eylea] |  | laser-induced leakage area of fluorescein (FFA) [2]: significantly decreased
